Patent US9499502B2, “5-substituted iminothiazines and their mono- and dioxides as BACE inhibitors, compositions, and their use” (Merck Sharp & Dohme Corp., priority 2011, dated 2016)

What follows are compounds tested against soluble human BACE1 catalytic domain (Homo sapiens (Human), UniProt P56817) (assay: BACE1 HTRF FRET Assay). Conditions: read-out: BACE1 % Inh. at 10 μM, at 10 μM.
soluble human BACE1 catalytic domain, sequence (P56817 75-416): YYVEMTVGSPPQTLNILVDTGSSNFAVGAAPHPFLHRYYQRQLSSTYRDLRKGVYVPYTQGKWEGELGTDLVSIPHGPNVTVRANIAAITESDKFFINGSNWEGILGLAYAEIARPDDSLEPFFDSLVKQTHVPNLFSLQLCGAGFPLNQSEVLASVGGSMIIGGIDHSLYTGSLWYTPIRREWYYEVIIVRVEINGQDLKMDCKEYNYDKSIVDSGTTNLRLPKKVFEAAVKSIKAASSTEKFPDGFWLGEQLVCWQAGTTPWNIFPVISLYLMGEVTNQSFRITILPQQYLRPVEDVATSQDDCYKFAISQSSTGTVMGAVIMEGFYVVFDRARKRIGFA

Row | SMILES | inhibition at 10 µM
1 | CN(C)CC(=O)Nc1ccc(F)c([C@]2(C)CS(=O)(=O)C(C)(C)C(=N)N2)c1 [Example 9ay] | 23%
2 | CC1(C)C(=N)N[C@](C)(c2cc(NC(=O)C3CCOCC3)cc(F)c2F)CS1(=O)=O [Example 9bb] | 48%
3 | CN(C)CC(=O)Nc1cc(F)c(F)c([C@]2(C)CS(=O)(=O)C(C)(C)C(=N)N2)c1 [Example 9bw] | 48%

Same assay, conditions: read-out: BACE1 Ki; Ki calculated from IC50 using the Cheng-Prusoff equation

Row | SMILES | Ki
4 | Cc1ccc(C(=O)Nc2ccc(F)c([C@]3(C)CS(=O)(=O)C(C)(C)C(=N)N3)c2)nc1 [Example 4] | 8 nM
5 | CC1(C)C(=N)N[C@](C)(c2cc(NC(=O)c3ccc(C(F)(F)F)cn3)ccc2F)CS1(=O)=O [Example 6] | 0.7 nM
6 | CC1(C)C(=N)N[C@](C)(c2cc(NC(=O)c3ccc(Cl)cc3)ccc2F)CS1(=O)=O [Example 8] | 19 nM
7 | CC1(C)C(=N)N[C@](C)(c2cc(NC(=O)c3ncc(Cl)cc3Cl)ccc2F)CS1(=O)=O [Example 9] | < 0.5 nM
8 | COc1ccc(C(=O)Nc2ccc(F)c([C@]3(C)CS(=O)(=O)C(C)(C)C(=N)N3)c2)nc1 [Example 9a] | 4.6 nM
9 | CC1(C)C(=N)N[C@](C)(c2c(F)c(F)cc(NC(=O)c3ccc(F)cn3)c2F)CS1(=O)=O [Example 9aa] | 35.4 nM
10 | CC1(C)C(=N)N[C@](C)(c2c(F)c(F)cc(NC(=O)c3ccc(Cl)cn3)c2F)CS1(=O)=O [Example 9ab] | 9.6 nM
11 | CC1(C(=O)Nc2ccc(F)c([C@]3(C)CS(=O)(=O)C(C)(C)C(=N)N3)c2)COC1 [Example 9af] | 739 nM
12 | CC1(C)C(=N)N[C@](C)(c2cc(NC(=O)CC(F)(F)F)ccc2F)CS1(=O)=O [Example 9ag] | 663 nM
13 | CC1(C)C(=N)N[C@](C)(c2cc(NC(=O)C3(C#N)CC3)ccc2F)CS1(=O)=O [Example 9ah] | 210 nM
14 | CC1(C(=O)Nc2ccc(F)c([C@]3(C)CS(=O)(=O)C(C)(C)C(=N)N3)c2)CC1 [Example 9aj] | 1490 nM
15 | Cc1cnc(C(=O)Nc2ccc(F)c([C@]3(C)CS(=O)(=O)C(C)(C)C(=N)N3)c2)cn1 [Example 9ak] | 26 nM
16 | CC1(C)C(=N)N[C@](C)(c2cc(NC(=O)[C@H]3CCCO3)ccc2F)CS1(=O)=O [Example 9al] | 172 nM
17 | CC1(C)C(=N)N[C@](C)(c2cc(NC(=O)C3CC3)ccc2F)CS1(=O)=O [Example 9am] | 359 nM
18 | CC(=O)Nc1ccc(F)c([C@]2(C)CS(=O)(=O)C(C)(C)C(=N)N2)c1 [Example 9an] | 1440 nM
19 | Cc1noc(CC(=O)Nc2ccc(F)c([C@]3(C)CS(=O)(=O)C(C)(C)C(=N)N3)c2)n1 [Example 9ao] | 3240 nM
20 | CC1(C)C(=N)N[C@](C)(c2cc(NC(=O)c3cocn3)ccc2F)CS1(=O)=O [Example 9ap] | 39 nM
21 | CC1(C)C(=N)N[C@](C)(c2cc(NC(=O)C3CCC3)ccc2F)CS1(=O)=O [Example 9aq] | 476 nM
22 | CC1(C)C(=N)N[C@](C)(c2cc(NC(=O)CC3CC3)ccc2F)CS1(=O)=O [Example 9ar] | 915 nM
23 | CCC(=O)Nc1ccc(F)c([C@]2(C)CS(=O)(=O)C(C)(C)C(=N)N2)c1 [Example 9as] | 521 nM
24 | CC1(C)C(=N)N[C@](C)(c2cc(NC(=O)C(F)F)ccc2F)CS1(=O)=O [Example 9au] | 195 nM
25 | CC1(C)C(=N)N[C@](C)(c2cc(NC(=O)C3CCOCC3)ccc2F)CS1(=O)=O [Example 9av] | 8580 nM

Row | SMILES | Ki
26 | CC1(C(=O)Nc2cc(F)c(F)c([C@]3(C)CS(=O)(=O)C(C)(C)C(=N)N3)c2)CC1 [Example 9az] | 708 nM
27 | CC1(C)C(=N)N[C@](C)(c2cc(NC(=O)c3ccc(C#N)cn3)ccc2F)CS1(=O)=O [Example 9b] | < 0.5 nM
28 | CC1(C)C(=N)N[C@](C)(c2cc(NC(=O)CC(F)(F)F)cc(F)c2F)CS1(=O)=O [Example 9bc] | 703 nM
29 | CCC(=O)Nc1cc(F)c(F)c([C@]2(C)CS(=O)(=O)C(C)(C)C(=N)N2)c1 [Example 9be] | 429 nM
30 | CC1(C)C(=N)N[C@](C)(c2cc(NC(=O)C3(C#N)CC3)cc(F)c2F)CS1(=O)=O [Example 9bj] | 485 nM
31 | CC1(C)C(=N)N[C@](C)(c2cc(NC(=O)[C@H]3CCCO3)cc(F)c2F)CS1(=O)=O [Example 9bm] | 218 nM
32 | CC(=O)Nc1cc(F)c(F)c([C@]2(C)CS(=O)(=O)C(C)(C)C(=N)N2)c1 [Example 9bn] | 1020 nM
33 | CC1(C(=O)Nc2cc(F)c(F)c([C@]3(C)CS(=O)(=O)C(C)(C)C(=N)N3)c2)COC1 [Example 9bp] | 1150 nM
34 | Cc1noc(CC(=O)Nc2cc(F)c(F)c([C@]3(C)CS(=O)(=O)C(C)(C)C(=N)N3)c2)n1 [Example 9bq] | 4960 nM
35 | CC1(C)C(=N)N[C@](C)(c2cc(NC(=O)C3CCC3(F)F)cc(F)c2F)CS1(=O)=O (some centres unmarked) [Example 9br] | 610 nM
36 | CC1(C)C(=N)N[C@](C)(c2cc(NC(=O)c3ccno3)cc(F)c2F)CS1(=O)=O [Example 9bs] | 171 nM
37 | CC1(C)C(=N)N[C@](C)(c2cc(NC(=O)C3CCC3)cc(F)c2F)CS1(=O)=O [Example 9bt] | 721 nM
38 | CC1(C)C(=N)N[C@](C)(c2cc(NC(=O)CC3CC3)cc(F)c2F)CS1(=O)=O [Example 9bv] | 1340 nM
39 | CC1(C)C(=N)N[C@](C)(c2cc(NC(=O)Cc3ncccn3)cc(F)c2F)CS1(=O)=O [Example 9bx] | 7070 nM
40 | CC1(C)C(=N)N[C@](C)(c2cc(NC(=O)c3ccc(OC(F)F)cn3)ccc2F)CS1(=O)=O [Example 9c] | 0.6 nM
41 | CC1(C)C(=N)N[C@](C)(c2nc(NC(=O)c3ccc(F)cn3)ccc2F)CS1(=O)=O [Example 9cd] | 48 nM
42 | COc1ccc(C(=O)Nc2ccc(F)c([C@]3(C)CS(=O)(=O)C(C)(C)C(=N)N3)n2)nc1 [Example 9ce] | 55.1 nM
43 | CC1(C)C(=N)N[C@](C)(c2nc(NC(=O)c3ccncn3)ccc2F)CS1(=O)=O [Example 9ch] | 101 nM
44 | CC[C@@]1(C)C(=N)N[C@](C)(c2cc(NC(=O)c3ccc(F)cn3)ccc2F)CS1(=O)=O [Example 9cl-a] | 5.9 nM
45 | CC[C@]1(C)C(=N)N[C@](C)(c2cc(NC(=O)c3ccc(F)cn3)ccc2F)CS1(=O)=O [Example 9cl-b] | 22.5 nM
46 | CC[C@@]1(C)C(=N)N[C@](C)(c2cc(NC(=O)c3ccc(OC)cn3)ccc2F)CS1(=O)=O [Example 9cm-a] | 5.6 nM
47 | C[C@@]1(c2cc(NC(=O)c3ccc(F)cn3)ccc2F)CS(=O)(=O)[C@@](C)(c2cccc(C(F)(F)F)c2)C(=N)N1 [Example 9co-a] | 5.8 nM

Row | SMILES | Ki
48 | COCC(=O)Nc1ccc(F)c([C@]2(C)CS(=O)(=O)[C@@](C)(c3cccc(C(F)(F)F)c3)C(=N)N2)c1 [Example 9cp-a] | 18 nM
49 | COc1cnc(C(=O)Nc2ccc(F)c([C@]3(C)CS(=O)(=O)[C@@](C)(C4CC4)C(=N)N3)c2)cn1 [Example 9cq-a] | 13.3 nM
50 | C[C@]1(CC2CCOCC2)C(=N)N[C@](C)(c2cc(NC(=O)c3ccc(F)cn3)ccc2F)CS1(=O)=O [Example 9cr-a] | 2.1 nM
51 | C[C@]1(CC2CCOCC2)C(=N)N[C@](C)(c2cc(NC(=O)c3ccc(Cl)cn3)ccc2F)CS1(=O)=O [Example 9cs-a] | 1.6 nM
52 | COc1cnc(C(=O)Nc2ccc(F)c([C@]3(C)CS(=O)(=O)[C@@](C)(CC4CCOCC4)C(=N)N3)c2)cn1 [Example 9ct-a] | 3.9 nM
53 | C[C@@]1(c2cc(NC(=O)c3ccc(F)cn3)ccc2F)CS(=O)(=O)[C@@](C)(c2ccccn2)C(=N)N1 [Example 9cv-a] | 7.8 nM
54 | C[C@@]1(c2cc(NC(=O)c3ccc(Cl)cn3)ccc2F)CS(=O)(=O)[C@@](C)(c2ccccn2)C(=N)N1 [Example 9cw-a] | 4.4 nM
55 | COc1ccc(C(=O)Nc2ccc(F)c([C@]3(C)CS(=O)(=O)[C@@](C)(c4ccccn4)C(=N)N3)c2)nc1 [Example 9cx-a] | 7.1 nM
56 | COc1cnc(C(=O)Nc2ccc(F)c([C@]3(C)CS(=O)(=O)C(C)(C)C(=N)N3)c2)c(F)c1 [Example 9d] | 5.4 nM
57 | C[C@@]1(c2cc(NC(=O)c3ccc(F)cn3)ccc2F)CS(=O)(=O)[C@@](C)(c2cccc(F)c2)C(=N)N1 [Example 9da-a] | 3.6 nM
58 | COc1ccc(C(=O)Nc2ccc(F)c([C@]3(C)CS(=O)(=O)[C@](C)(c4cccc(F)c4)C(=N)N3)c2)nc1 [Example 9dc-b] | 216 nM
59 | COc1cnc(C(=O)Nc2ccc(F)c([C@]3(C)CS(=O)(=O)[C@@](C)(c4cccc(F)c4)C(=N)N3)c2)cn1 [Example 9dd-a] | 3.9 nM
60 | C[C@@]1(c2cc(NC(=O)c3ccc(C(F)(F)F)cn3)ccc2F)CS(=O)(=O)[C@@](C)(c2cccc(F)c2)C(=N)N1 [Example 9de-a] | 3.5 nM
61 | C[C@@]1(c2cc(NC(=O)c3ccc(F)cn3)ccc2F)CS(=O)(=O)[C@@](C)(c2ccc(F)cc2)C(=N)N1 [Example 9df-a] | 2.3 nM
62 | COc1cnc(C(=O)Nc2ccc(F)c([C@]3(C)CS(=O)(=O)[C@@](C)(c4ccc(F)cc4)C(=N)N3)c2)cn1 [Example 9dg-a] | 4.5 nM
63 | C[C@]1(CC2CC2)C(=N)N[C@](C)(c2cc(NC(=O)c3ccc(F)cn3)ccc2F)CS1(=O)=O [Example 9dh-a] | 7.5 nM
64 | C[C@@]1(c2cc(NC(=O)c3ccc(F)cn3)ccc2F)CS(=O)(=O)[C@](C)(CC2CC2)C(=N)N1 [Example 9dh-b] | 47.4 nM
65 | C[C@]1(CC2CC2)C(=N)N[C@](C)(c2cc(NC(=O)c3ccc(Cl)cn3)ccc2F)CS1(=O)=O [Example 9di-a] | 4.3 nM
66 | C[C@@]1(c2cc(NC(=O)c3ccc(Cl)cn3)ccc2F)CS(=O)(=O)[C@](C)(CC2CC2)C(=N)N1 [Example 9di-b] | 15.6 nM
67 | COc1ccc(C(=O)Nc2ccc(F)c([C@]3(C)CS(=O)(=O)[C@@](C)(CC4CC4)C(=N)N3)c2)nc1 [Example 9dj-a] | 4.3 nM
68 | COc1ccc(C(=O)Nc2ccc(F)c([C@]3(C)CS(=O)(=O)[C@](C)(CC4CC4)C(=N)N3)c2)nc1 [Example 9dj-b] | 26.9 nM
69 | COc1cnc(C(=O)Nc2ccc(F)c([C@]3(C)CS(=O)(=O)[C@@](C)(CC4CC4)C(=N)N3)c2)cn1 [Example 9dk-a] | 7 nM

Same assay, conditions: read-out: BACE1 inhibition, Ki

Row | SMILES | Ki
70 | CC1(C)C(=N)N[C@](C)(c2cc(Br)cs2)CS1(=O)=O [Example 6C-1] | 4700 nM
71 | C[C@]1(CC(F)(F)F)C(=N)N[C@](C)(c2sc(Br)cc2F)CS1(=O)=O [Example 6F-3a] | 500 nM
